Columns and labels:
VMAT2KD ES cells = experiment: Differentiation into insulin-expressing cells in vesicular monoamine transporter knock-down cell line; type: cell-based, mouse; settings: VMAT2KD cells with dBu-cAMP 0.63 μM; control = normal cells without cAMP analog (FIG. 11A)
Protocol: In the Vmat2-knockdown and Drd2-knockdown assays, Expression Arrest non-silencing control shRNA (Open Biosystems, #RHS4080), Vmat2 hRNA (Open Biosystems, #RMM3981-97058457 and #RMM3981-97058458) or Drd2 hRNA (Open Biosystems, #RMM3981-9594258) lentiviral vectors were used. For virus preparation, HEK293-FT cells (Invitrogen) were seeded on a plate medium the day before transfection. After overnight culture, the cells were transfected with lentiviral vectors and ViraPower™ Lentiviral Packaging Mix (Invitrogen) using FuGENE6 Transfection Reagent (Roche) according to the manufacturer's protocol. Cells were incubated in the ES maintenance medium for 24 hours, and viral supernatants were collected. Then, SK7 cells were infected with the viral supernatants. After incubation for 24 hours, the virus-containing medium was replaced with fresh ES maintenance medium. Further 24 hours later, the infected cells were selected using […] puromycin. The surviving cells were cloned as a knockdown-cell lines.
Drd2 is known as a G protein-coupled receptor activating Gαi/o protein and having an inhibiting activity against adenyl cyclase. To identify the intracellular signal transduction phenomenon by Drd2, the effect of cAMP was examined. […] This enhancement was stronger than that obtained when dBu-cAMP was added to VMAT2KD ES cells (FIG. 10). […]

Ngn3/GFP mouse ES cells = experiment: Ngn3 positive cell inducing rate; type: cell-based; settings: TBZ 2.5 μM or dBu-cAMP 0.6 μM; addition days 9-11, 11-13 or 9-13; day 13 (FIG. 16C)
Protocol: The influence exerted on the Ngn3 positive cell inducing rate by addition of TBZ (2.5 μM) or dBu-cAMP (0.6 μM) was confirmed. FIG. 16A is a view schematically showing the addition periods of TBZ or dBu-cAMP, and the addition periods are a) on days 9 to 11 of culture, b) on days 11 to 13 of culture, and c) on days 9 to 13 of culture.
First, the compound was not added or TBZ was added on days 9 to 13 of culture (period c), and visible light photographs and fluorescence of Ngn3/GFP mouse ES cells were observed on day 13 of culture. The left one is a visible light photograph and the right one is fluorescence.
Next, the compound was not added, or TBZ or dBu-cAMP was added under the above-described conditions a), b) and c), and the proportion of GFP positive cells on day 13 of culture was checked. The ratios of the proportions of GFP positive cells and Ngn3 positive cells when the ratio in the case of no addition is 1 are shown in FIG. 16C. […] The order of intensity of the effect was a), c), b) in descending order.

differentiated ES cells = experiment: Real time PCR of gene expression in differentiated ES cells; type: cell-based, mouse; settings: TBZ 2.5 μM

Question: What does the source list for `CCCC(=O)Nc1ncnc2c1ncn2[C@@H]1O[C@@H]2COP(=O)(O)O[C@H]2[C@H]1OC(=O)CCC` [Dibutyryl- cAMP, dibutyrate-cAMP]?
Answer: increase of number of insulin-expressing cells (VMAT2KD ES cells): 31.4 fold; number of GFP positive cells (Ngn3/GFP mouse ES cells): increased in all conditions; expression of Abcc8 (differentiated ES cells; dBu-cAMP 0.6 μM (FIG. 13)): increased remarkably; expression of Glut2 (differentiated ES cells; dBu-cAMP 0.6 μM (FIG. 13)): increased remarkably; expression of MafA (differentiated ES cells; dBu-cAMP 0.6 μM (FIG. 13)): increased slightly; expression of Stx1 (differentiated ES cells; dBu-cAMP 0.6 μM (FIG. 13)): increased slightly; expression level of MafA, time course (differentiated ES cells; dBu-cAMP 0.6 μM from day 11, after day 13 (FIG. 15)): promoted; expression level of Ngn3 (differentiated ES cells; dBu-cAMP 0.6 μM from day 11, day 13 and day 15 (FIG. 15)): increased also; expression level of Insulin1 (differentiated ES cells; dBu-cAMP 0.6 μM from day 11, single after day 13, both after day 15 (FIG. 15)): promoted

— patent publication US9617517B2, “Small chemical compound which promotes induction of differentiation of stem cells into insulin-producing cells and method for inducing differentiation of stem cells into insulin-producing cells using said small chemical compound” (NATIONAL UNIVERSITY CORPORATION KUMAMOTO UNIVERSITY, priority 2011, dated 2017)
